Legend:
[1] = system: hESC-derived CEC; assay: Effect of ROCK inhibitor on harvested and replated hESC-derived CEC; format: cell-based, human; set-up: key to O/N Confluent: +: “O/N confluent” indicates the confluence of cultured cells after overnight plating, reflecting the degree of cell survival and/or attachment.; −: “O/N confluent” indicates the confluence of cultured cells after overnight plating, reflecting the degree of cell survival and/or attachment; key to Morphology: a high quality polygonal/hexagonal cell shape (“++”); a polygonal/hexagonal shape (“+”); fibroblastic morphology (“−”); key to COL8A1 mRNA / AQP1 mRNA / SLC16A3 mRNA: expression (“+”); non-expression (“−”)
Protocol: Expression of COL8A1 and SLC16A3 were elevated relative to hESC (FIGS. 17E-17F).
The harvested cells were further examined for morphology, ability to reestablished a confluent culture, and retaining expression of the CEC markers COL8A1, AQP1, and SLC16A by qPCR. […] Moreover, Maintenance with media containing ROCK inhibitor can help the cells maintain a high quality CEC morphology after harvesting and replating.
Rock inhibitor […] (Wako, cat #253-00513) was dissolved in distilled H2O to make a 10 mM stock solution and sterile filtered and aliquoted. Rock inhibitor aliquot was thawed and added fresh to media daily.
Cornea cells were grown as described in Example 2 and harvested by treatment with 0.25% Trypsin as described in Example 4 and replated, with variations (i.e., inclusion of ROCK inhibitor and/or ASC as described below).
After plating, cells were viewed to identify any morphological changes, and specifically whether they regained their polygonal/hexagonal shape, were a mixed population of polygonal and fibroblastic shape, or if they had turned fibroblastic.
Media was changed daily with fresh Rock inhibitor except for “Pretreatment” and “D1” paradigms. After 1 week of culture, RNA was collected and analyzed by QPCR for changes in COL8A1, AQP1, and SLC16A3 mRNA levels. The efficacy of the Rock inhibitor for harvesting cells were tested between 1-20 microM.
For the “Pretreatment” paradigm, CEC were produced as described in Example 2. The cornea media was removed and replaced with either 10 microM Rock or 10 microM Rock with 0.3 mM ASC-P2 (L ascorbic acid phosphate magnesium salt n-hydrate (Wako, cat #013-19641)) for 1 hour before harvesting. Cells were harvested using 0.25% trypsin as described above, however, no Rock inhibitor was added during harvesting.
For the “Rock overnight” paradigm, CEC were produced as described in Example 2, harvested with 0.25% trypsin as described above, and then plated overnight in the presence of 10 microM Rock inhibitor. The following morning, the media was removed, and no further Rock inhibitor was added to the media.
For the “Rock maintenance” paradigm, CEC were produced as described in Example 2, harvested using 0.25% trypsin as described above, and were maintained in Rock inhibitor added daily to fresh media.
For the “D1” paradigm, CEC were produced as described in Example 2, harvested using 0.25% trypsin as described above, and cultured in presence of Rock inhibitor for 1 week. Cornea cells were then grown for additional week in the presence or absence of Rock inhibitor, to determine whether the ROCK inhibitor contributed to the maintenance of their morphology.

[2] = system: CEC; assay: ANGPL7 included in culture media during CEC differentiation; format: cell-based, human; conditions: in culture media in combination with DKK2 and PDGFB; methods of Example 1
Description: Accordingly, ANGPL7 may optionally be used in the differentiation of corneal endothelial cells, for example by its inclusion in the culture during and/or after formation of corneal endothelial cells. ANGPL1-8 may be used in place of or in addition to ANGPL7.

[3] = D1: factors in media for the first week after plating, thereafter omitted

C[C@@H](N)[C@H]1CC[C@H](C(=O)Nc2ccncc2)CC1 [Rock, (1R,4r)-4-((R)-1-aminoethyl)-N-(pyridin-4-yl)cyclohexanecarboxamide]
morphology of the hESC CEC trypsinized and replated ([1]; 1 μM Rock inhibitor, FIG. 17A): variable | morphology of the hESC CEC trypsinized and replated ([1]; 5 μM Rock inhibitor, FIG. 17B): somewhat more uniform | morphology of the hESC CEC trypsinized and replated ([1]; 10 μM Rock inhibitor, FIG. 17C): uniform and polygonal/hexagonal | morphology of the hESC CEC trypsinized and replated ([1]; 20 μM Rock inhibitor, FIG. 17D): uniform and polygonal/hexagonal | SLC16A3 expression compared to PD1T that has not been harvested ([1]; 20 μM Rock inhibitor, QPCR): unchanged | SLC16A3 expression compared to PD1T that has not been harvested ([1]; 1-10 μM Rock inhibitor, QPCR): upregulated | O/N Confluent ([1]; 1 microM (maint.), in media each day after plating): + | AQP1 mRNA ([1]; 1 microM (maint.), QPCR): + | COL8A1 mRNA ([1]; 1 microM (maint.), QPCR): + | SLC16A3 mRNA ([1]; 1 microM (maint.), QPCR): + | Morphology ([1]; 1 microM (maint.), after 1 week in culture): + | O/N Confluent ([1]; 5 microM (maint.)): + | AQP1 mRNA ([1]; 5 microM (maint.), QPCR): + | COL8A1 mRNA ([1]; 5 microM (maint.), QPCR): + | SLC16A3 mRNA ([1]; 5 microM (maint.), QPCR): + | Morphology ([1]; 5 microM (maint.), after 1 week in culture): ++ | O/N Confluent ([1]; 10 microM (maint.), ASC 0.3 mM where added): + | AQP1 mRNA ([1]; 10 microM (maint.), QPCR): + | COL8A1 mRNA ([1]; 10 microM (maint.), QPCR): + | SLC16A3 mRNA ([1]; 10 microM (maint.), QPCR): + | Morphology ([1]; 10 microM (maint.), after 1 week in culture): ++ | O/N Confluent ([1]; 20 microM (maint.), ASC 0.3 mM where added): + | AQP1 mRNA ([1]; 20 microM (maint.), QPCR): + | COL8A1 mRNA ([1]; 20 microM (maint.), QPCR): + | SLC16A3 mRNA ([1]; 20 microM (maint.), QPCR): + | Morphology ([1]; 20 microM (maint.), after 1 week in culture): ++ | Morphology [1, 3]: − | O/N Confluent [1, 3]: + | O/N Confluent ([1]; Pretreat: 10 microM Rock 1 hour before harvesting with 0.25% trypsin, ASC 0.3 mM where added): − | Morphology ([1]; Pretreat: 10 microM Rock 1 hour before harvesting, after 1 week in culture): − | AQP1 mRNA ([1]; Pretreat, QPCR after 1 week): + | COL8A1 mRNA ([1]; Pretreat, QPCR after 1 week): + | SLC16A3 mRNA ([1]; Pretreat, QPCR after 1 week): + | COL8A1 expression compared to PD1T that has not been harvested ([1]; QPCR, FIG. 17E): relatively unchanged | cell uniformity and polygonal/hexagonal morphology ([1]; concentrations up to 20 micromolar, FIGS. 17A-17D): dose-responsive improvement | O/N Confluent ([1]; o/n: plated overnight with 10 microM Rock after harvest, ASC 0.3 mM where added): + | Morphology ([1]; o/n: plated overnight with 10 microM Rock, after 1 week in culture): + | AQP1 mRNA ([1]; o/n, QPCR after 1 week): + | COL8A1 mRNA ([1]; o/n, QPCR after 1 week): + | SLC16A3 mRNA ([1]; o/n, QPCR after 1 week): +

B1: ANGPL7: Angiopoietin-Like Protein 7, included in the culture media with DKK2 and PDGFB (protein, UniProt O43827 27-346, looked up)
Angiopoietin-related protein 7: QKLSKHKTPAQPQLKAANCCEEVKELKAQVANLSSLLSELNKKQERDWVSVVMQVMELESNSKRMESRLTDAESKYSEMNNQIDIMQLQAAQTVTQTSADAIYDCSSLYQKNYRISGVYKLPPDDFLGSPELEVFCDMETSGGGWTIIQRRKSGLVSFYRDWKQYKQGFGSIRGDFWLGNEHIHRLSRQPTRLRVEMEDWEGNLRYAEYSHFVLGNELNSYRLFLGNYTGNVGNDALQYHNNTAFSTKDKDNDNCLDKCAQLRKGGYWYNCCTDSNLNGVYYRLGEHNKHLDGITWYGWHGSTYSLKRVEMKIRPEDFKP
packing and morphology of the resulting CEC [2]: tighter packing and more hexagonal morphology

Reference: patent US12049642B2, “Corneal endothelial cells with increased cell density and compositions thereof” (Astellas Institute for Regenerative Medicine, priority 2011, dated 2024)
